Source: article PMC11433764, “A Novel Compound from the Phenylsulfonylpiperazine Class: Evaluation of In Vitro Activity on Luminal Breast Cancer Cells” (Molecules, 2024)
pIC50: −log10 of the molar value. Read-outs that look alike come from different tables or passages of the source.

Legend:
Assay type in all cases: cell-based
MDA-MB-231 = assay: MTT cell viability, MDA-MB-231; set-up: key to SI MDA-MB-231: NS: the compound was more active in the non-tumor cell line; settings: for pIC50: Homo sapiens, MDA-MB-231, 48 h, MTT; for SI MDA-MB-231: IC50 MCF10A / IC50 MDA-MB-231
Procedure: (§1) Four different breast cells lines were used in this study: MCF-10A (non-tumorigenic), MCF7 (ER+ BC), MDA-MB453 (HER2+ BC) and MDA-MB231 (TNBC). All lineages were obtained from the American Type Culture Collection (ATCC; Manassas, VA, USA) and maintained at a temperature of 37 °C according to the supplier’s recommendations. Only MDA-MB231 cells were not kept in an atmosphere of 5% CO2. MCF-10A was grown in Dulbecco’s Modified Eagle’s Medium (DMEM F12, Gibco, ThermoFisher Scientific, Waltham, MA, USA) supplemented with 20 ng/mL epidermal growth factor (Gibco, ThermoFisher Scientific, Waltham, MA, USA), 0.5 μg/mL hydrocortisone (Sigma-Aldrich, Sigma-Aldrich, St. Louis, MO, USA) and 10 μg/mL insulin (Gibco, ThermoFisher Scientific, Waltham, MA, USA). MCF7 was cultivated in Roswell Park Memorial Institute Medium (RPMI-1640, Gibco, ThermoFisher Scientific, Waltham, MA, USA), MDA-MB453 in IMDM and MDA-MB231 in Leibovitz’s medium (L-15, Gibco, ThermoFisher Scientific, Waltham, MA, USA). All media were supplemented with 10% fetal bovine serum (FBS, Gibco, ThermoFisher Scientific, Waltham, MA, USA) and 50 µg/mL of gentamicin (Cultilab, Campinas, SP, Brazil). The cells were confirmed to be free of mycoplasma and passaged using a 0.25% trypsin-EDTA solution when confluency reached 80–90%.
(§2) Cell viability was determined by spectrophotometric quantification of MTT (3-[4,5-dimethyl-thiazol-2-yl]-2,5-diphenyltetrazolium bromide—Invitrogen. Waltham, MA, USA) reduction to formazan crystals. Cells were seeded at the density of 1 × 10^4 cells/well (MCF-10A, MDA-MB453), 1.5 × 10^4 cells/well (MDA-MB231) and 3 × 10^3 cells/well (MCF7) in 96-well culture dishes and incubated with different concentrations of the compounds (1.25, 2.5, 5, 10, 20, 40, 80 and 160 µM) for 48 h. The medium was than replaced by MTT solution (0.5 mg/mL) and plates were kept at 37 °C for 4 h. After the aspiration of the media, the formazan crystals were diluted with 100 μL of dimethyl-sulfoxide (DMSO)/well and the absorbance at 570 nm was measured using a spectrophotometer (Thermo Plate TP-Reader, Waltham, MA, USA). Cytotoxicity was calculated using the following formula: Cytotoxicity (%) = [absorbance of cells treated with the compounds/absorbance of cells treated with DMSO) × 100]. The IC50 was determined for each compound and was defined as the concentration required to inhibit 50% of cell growth, compared to the control sample (cells treated with DMSO 0.05%).
(§3) Data were presented as the mean ± standard deviation (SD) and analyzed using GraphPad Prism 9.0 software (GraphPad Software Inc., La Jolla, CA, USA). All data were assayed in triplicate. Statistical analysis was performed using one-way ANOVA, Tukey´s HSD post hoc test and Student’s t-test. The IC50 was calculated using non-linear regression and the selectivity index (SI) was calculated by the ratio between the IC50 values corresponding to the non-tumor cell lineage (MCF-10A) and the IC50 values corresponding to the BC cell lines. Statistical significance was accepted at p values < 0.05.

MCF-10A = assay: MTT cell viability, non-tumor cell line MCF-10A; settings: 48 h; for Cytotoxicity to the MCF-10A cell line (in words): up to 160 μM; for pIC50: Homo sapiens, MCF-10A
Procedure: as §1, §2, §3

MDA-MB-453 = assay: MTT cell viability, MDA-MB-453; set-up: key to SI MDA-MB-453: NS: the compound was more active in the non-tumor cell line; settings: for pIC50: Homo sapiens, MDA-MB-453, 48 h, MTT; for SI MDA-MB-453: IC50 MCF10A / IC50 MDA-MB-453
Procedure: as §1, §2, §3

MCF7 = assay: MTT cell viability, MCF7; set-up: key to SI MCF7: NS: the compound was more active in the non-tumor cell line; settings: for pIC50: Homo sapiens, MCF7, 48 h, MTT; for SI MCF7: IC50 MCF10A / IC50 MCF7
Procedure: as §1, §2, §3

[1] = system: tumor cells MCF7, MDA-MB-453 and MDA-MB-231; assay: MTT cell viability, tumor cells (stated collectively); settings: for pIC50: 48 h, MTT, tumor cells stated collectively
Procedure: as §1, §2, §3

[2] = 1.25–160 μM, read-out: IC50 MDA-MB-231
[3] = 1.25–160 μM, read-out: IC50 MCF-10A
[4] = 1.25–160 μM, read-out: IC50 MDA-MB-453
[5] = 1.25–160 μM, read-out: IC50 MCF7
[6] = read-out: IC50 MD-AMB 231 (Table S1)
[7] = read-out: IC50 MCF-10A (Table S1)
[8] = read-out: IC50 MD-AMB 453 (Table S1)

Row | Structure (SMILES) | pIC50 (MDA-MB-231; [2]) | SI MDA-MB-231 (MDA-MB-231) | Cytotoxicity to the MCF-10A cell line (in words) (MCF-10A) | pIC50 (MCF-10A; [3]) | pIC50 (MDA-MB-453; [4]) | pIC50 (MCF7; [5]) | pIC50 [1] | SI MDA-MB-453 (MDA-MB-453) | SI MCF7 (MCF7) | Selectivity for tumor cells over MCF-10A (in words) [1] | pIC50 (MDA-MB-231; [6]) | pIC50 (MCF-10A; [7]) | pIC50 (MDA-MB-453; [8]) | pIC50 (MCF7; read-out: IC50 MCF7 (Table S1))
1 | N#Cc1ccc(C(=O)N2CCN(S(=O)(=O)c3ccc(Cl)cc3)CC2)cc1 [Compound 1] | 4.07 | >1.88 | not cytotoxic | < 3.80 | < 3.80 | < 3.80 | < 4.30 | – | – | – | – | – | – | –
2 | CN(C)CCOc1ccc(C(=O)N2CCN(S(=O)(=O)c3ccc(Cl)cc3)CC2)cc1 [Compound 2] | 4.21 | 1.44 | – | 4.05 | 4.30 | < 3.80 | – | 1.75 | NS | – | – | – | – | –
3 | O=C(c1ccc(Cl)nc1)N1CCN(S(=O)(=O)c2ccc(Cl)cc2)CC1 [Compound 4] | 3.95 | >1.42 | not cytotoxic | < 3.80 | < 3.80 | < 3.80 | < 4.30 | – | – | – | – | – | – | –
4 | CN(C)CCNc1ccc(C(=O)N2CCN(S(=O)(=O)c3ccc(Cl)cc3)CC2)cn1 [Compound 5] | < 3.80 | – | not cytotoxic | < 3.80 | < 3.80 | 4.08 | < 4.30 | – | >1.93 | – | – | – | – | –
5 | CCOC(=O)c1ccc(N2CCN(S(=O)(=O)c3ccc(Cl)cc3)CC2)nc1 [Compound 6] | 4.27 | >3.01 | not cytotoxic | < 3.80 | < 3.80 | < 3.80 | < 4.30 | – | – | – | – | – | – | –
6 | O=S(=O)(c1ccc(Cl)cc1)N1CCN(c2ccc(CO)cn2)CC1 [Compound 7] | 3.97 | 0.85 | – | 4.04 | < 3.80 | < 3.80 | – | NS | NS | – | – | – | – | –
7 | O=C(c1ccc(N2CCN(S(=O)(=O)c3ccc(Cl)cc3)CC2)nc1)N1CCCC1 [Compound 8] | 3.87 | NS | – | 4.07 | 4.03 | 3.81 | – | NS | NS | – | – | – | – | –
8 | CN(C)C(=O)c1ccc(N2CCN(S(=O)(=O)c3ccc(Cl)cc3)CC2)nc1 [Compound 9] | < 3.80 | NS | – | 4.19 | < 3.80 | < 3.80 | – | NS | NS | – | – | – | – | –
9 | CN(C)Cc1ccc(N2CCN(S(=O)(=O)c3ccc(Cl)cc3)CC2)nc1 [Compound 10] | < 3.80 | NS | – | 3.96 | 4.32 | 4.21 | > 4.30 | 2.25 | 1.75 | – | – | – | – | –
10 | CN(C)Cc1ccc(N2CCN(S(=O)(=O)c3ccc(F)cc3)CC2)nc1 [Compound 11] | < 3.80 | – | – | < 3.80 | 3.96 | 4.70 | – | >1.47 | – | – | – | – | – | –
11 | CN(C)CCOc1ccc(N2CCN(S(=O)(=O)c3ccc(Cl)cc3)CC2)cc1 [Compound 12] | < 3.80 | NS | – | 4.17 | 3.87 | 4.30 | > 4.30 | NS | 1.37 | not selective | – | – | – | –
12 | O=S(=O)(c1ccc(Cl)cc1)N1CCNCC1 [Compound 13] | – | – | – | – | – | – | – | – | – | – | < 3.80 | < 3.80 | < 3.80 | < 3.80
13 | Cc1ccc(S(=O)(=O)N2CCN(c3ccc(C(=O)N(C)C)cn3)CC2)cc1 [Compound 14] | – | – | – | – | – | – | – | – | – | – | < 3.80 | < 3.80 | < 3.80 | < 3.80
14 | CN(C)C(=O)c1ccc(N2CCN(S(=O)(=O)c3ccccc3)CC2)nc1 [Compound 15] | – | – | – | – | – | – | – | – | – | – | < 3.80 | < 3.80 | < 3.80 | < 3.80
15 | O=C(O)c1ccc(N2CCN(S(=O)(=O)c3ccc(Cl)cc3)CC2)nc1 [Compound 16] | – | – | – | – | – | – | – | – | – | – | < 3.80 | < 3.80 | < 3.80 | < 3.80
16 | O=C(c1ccc(N2CCN(S(=O)(=O)c3ccc(Cl)cc3)CC2)nc1)N1CCOCC1 [Compound 17] | – | – | – | – | – | – | – | – | – | – | < 3.80 | < 3.80 | < 3.80 | < 3.80
17 | CN1CCN(C(=O)c2ccc(N3CCN(S(=O)(=O)c4ccc(Cl)cc4)CC3)nc2)CC1 [Compound 18] | – | – | – | – | – | – | – | – | – | – | < 3.80 | < 3.80 | < 3.80 | < 3.80
18 | O=S(=O)(c1ccc(F)cc1)N1CCN(c2ccccc2)CC1 [Compound 19] | – | – | – | – | – | – | – | – | – | – | < 3.80 | < 3.80 | < 3.80 | < 3.80
19 | O=S(=O)(c1ccc(Cl)cc1)N1CCN(c2ccc(O)cc2)CC1 [Compound 20] | – | – | – | – | – | – | – | – | – | – | < 3.80 | < 3.80 | < 3.80 | < 3.80
